The results in this text go back to patent US10913727B2, “Modulators of the integrated stress pathway” (Calico Life Sciences LLC, priority 2016, dated 2021).

This experiment deals with HEK293T cells carrying the ATF4 luciferase reporter. The experiment is described as follows: ATF4-Luc assay, in vitro model of Vanishing Cell White Matter Disease (VWMD). The experiment is classed as cell-based. To be noted: Homo sapiens, HEK-293T, 1 μg/mL tunicamycin, 7 hours, One Glo luminescence. The method, boiled down:
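Reporter cells were stably generated by retroviral transduction and puromycin selection, then seeded at 30,000 cells/well. Next day, cells received 1 μg/mL tunicamycin with 200 nM test compound for 7 h, and luciferase luminescence was read with a one-step reagent. Values reported as EC50.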
Take `O=C(COc1ccc2c(c1)OC(F)(F)O2)NC12CC(NC(=O)c3cnc(-c4ccccc4)o3)(C1)C2` [Compound 742, N-(3-{2-[(2,2-difluoro-2H-1,3-benzodioxol-5-yl)oxy]acetamido}bicyclo[1.1.1]pentan-1-yl)-2-phenyl-1,3-oxazole-5-carboxamide]: the EC50 (as a rule, the concentration giving half of the maximal effect) is less than 50 nM.

As to `NS(=O)(=O)c1cccc(C(=O)NC23CC(NC(=O)COc4ccc(Cl)c(F)c4)(C2)C3)c1` [Compound 768, N-{3-[2-(4-chloro-3-fluorophenoxy)acetamido]bicyclo[1.1.1]pentan-1-yl}-3-sulfamoylbenzamide], the EC50 is more than 2000 nM.

In the case of `CCc1ccnc(C(=O)NC23CC(NC(=O)COc4ccc(Cl)c(F)c4)(C2)C3)c1` [Compound 197, N-{3-[2-(4-chloro-3-fluorophenoxy)acetamido]bicyclo[1.1.1]pentan-1-yl}-4-ethylpyridine-2-carboxamide], the concentration giving a half-maximal response (EC50) lay in the range of 50 to 250 nM.

As for `O=C(COc1ccc(Cl)c(F)c1)NC12CC(NC(=O)c3cc(N4CCCC4)ccn3)(C1)C2` [Compound 181, N-{3-[2-(4-chloro-3-fluorophenoxy)acetamido]bicyclo[1.1.1]pentan-1-yl}-4-(pyrrolidin-1-yl)pyridine-2-carboxamide], the EC50 was in the range of 250 to 1000 nM.

Consider `Cc1nc(C(=O)NC23CCC(NC(=O)COc4ccc(Cl)c(F)c4)(CC2)C(O)C3)cs1` (centres unmarked) [Compound 473, N-{4-[2-(4-chloro-3-fluorophenoxy)acetamido]-3-hydroxybicyclo[2.2.2]octan-1-yl}-2-methyl-1,3-thiazole-4-carboxamide], for which the EC50 was in the range of 50 to 250 nM.

For `O=C(COc1ccc(Cl)c(F)c1)NC12CCC(NC(=O)c3ccccn3)(CC1)[C@@H](O)C2` [Compound 588, N-{(2S)-4-[2-(4-chloro-3-fluorophenoxy)acetamido]-2-hydroxybicyclo[2.2.2]octan-1-yl}pyridine-2-carboxamide], the half-maximal effective concentration (EC50) is less than 50 nM.

As for `O=C(COc1ccc(Cl)c(F)c1)NC12CC(NC(=O)c3cnc(C4CC4)nc3)(C1)C2` [Compound 888, N-{3-[2-(4-chloro-3-fluorophenoxy)acetamido]bicyclo[1.1.1]pentan-1-yl}-2-cyclopropylpyrimidine-5-carboxamide], the concentration for a half-maximal effect (EC50) fell in the range of 50 to 250 nM.

Take `O=C(COc1ccc(Cl)c(F)c1)NC12CC(NC(=O)c3ccc(CO)nc3)(C1)C2` [Compound 718, N-{3-[2-(4-chloro-3-fluorophenoxy)acetamido]bicyclo[1.1.1]pentan-1-yl}-6-(hydroxymethyl)pyridine-3-carboxamide]: the EC50 fell in the range of 250 to 1000 nM.

Consider `Cn1nc(C(F)F)cc1C(=O)NC12CCC(NC(=O)COc3ccc(Cl)c(F)c3)(CC1)C[C@@H]2O` [Compound 413, N-{(2S)-4-[2-(4-chloro-3-fluorophenoxy)acetamido]-2-hydroxybicyclo[2.2.2]octan-1-yl}-3-(difluoromethyl)-1-methyl-1H-pyrazole-5-carboxamide], for which the EC50 is less than 50 nM.

Turning to `O=C(COc1ccc(Cl)c(F)c1)NC12CCC(NC(=O)c3cnc(C(F)F)cn3)(CC1)[C@H](O)C2` (single isomer, unassigned) [Compound 235], the EC50 was 50 to 250 nM.

Consider `Cc1cncc(C(=O)NC23CC(NC(=O)COc4ccc(Cl)c(Cl)c4)(C2)C3)c1` [Compound 645, N-{3-[2-(3,4-dichlorophenoxy)acetamido]bicyclo[1.1.1]pentan-1-yl}-5-methylpyridine-3-carboxamide], for which the EC50 lay within 50 to 250 nM.

Turning to `Cc1cc2c(NC34CC(NC(=O)COc5cc(F)c(F)c(F)c5)(C3)C4)nccn2n1` [Compound 495, N-{3-[(2-methylpyrazolo[1,5-a]pyrazin-4-yl)amino]bicyclo[1.1.1]pentan-1-yl}-2-(3,4,5-trifluorophenoxy)acetamide], the 50% effective concentration (EC50) is 250 to 1000 nM.

As for `N#Cc1ccc(C(=O)NC23CCC(NC(=O)COc4ccc(Cl)c(F)c4)(CC2)CC3O)cc1` (centres unmarked) [Compound 210, N-{4-[2-(4-chloro-3-fluorophenoxy)acetamido]-2-hydroxybicyclo[2.2.2]octan-1-yl}-4-cyanobenzamide], the EC50 lay within 250 to 1000 nM.

As to `O=C(COc1ccc(Cl)c(F)c1)NC12CC(NC(=O)c3cc(OC(F)F)ccn3)(C1)C2` [Compound 300, N-{3-[2-(4-chloro-3-fluorophenoxy)acetamido]bicyclo[1.1.1]pentan-1-yl}-4-(difluoromethoxy)pyridine-2-carboxamide], the EC50 lay within 250 to 1000 nM.

As for `O=C(COc1ccc(Cl)c(F)c1)NC12CC(NC(=O)c3ccc4oc(=O)ccc4c3)(C1)C2` [Compound 396, N-{3-[2-(4-chloro-3-fluorophenoxy)acetamido]bicyclo[1.1.1]pentan-1-yl}-2-oxo-2H-1-benzopyran-6-carboxamide], the 50% effective concentration (EC50) lay within 250 to 1000 nM.

As to `O=C(COc1ccc(Cl)c(F)c1)NC12CCC(NC(=O)c3cncs3)(CC1)CC2O` (centres unmarked) [Compound 593, N-{4-[2-(4-chloro-3-fluorophenoxy)acetamido]-3-hydroxybicyclo[2.2.2]octan-1-yl}-1,3-thiazole-5-carboxamide], the EC50 is 50 to 250 nM.

As to `Cn1ncc2cc(C(=O)NC34CC(NC(=O)COc5ccc(Cl)c(F)c5)(C3)C4)cnc21` [Compound 620, N-{3-[2-(4-chloro-3-fluorophenoxy)acetamido]bicyclo[1.1.1]pentan-1-yl}-1-methyl-1H-pyrazolo[3,4-b]pyridine-5-carboxamide], the EC50 is 1000 to 2000 nM.

With `Cc1cc(C(=O)NC23CC(NC(=O)COc4ccc(Cl)c(F)c4)(C2)C3)oc1C` [Compound 612, N-{3-[2-(4-chloro-3-fluorophenoxy)acetamido]bicyclo[1.1.1]pentan-1-yl}-4,5-dimethylfuran-2-carboxamide], the concentration giving a half-maximal response (EC50) is 50 to 250 nM.

Regarding `COc1ncccc1C(=O)NC12CC(NC(=O)COc3ccc(Cl)c(F)c3)(C1)C2` [Compound 809, N-{3-[2-(4-chloro-3-fluorophenoxy)acetamido]bicyclo[1.1.1]pentan-1-yl}-2-methoxypyridine-3-carboxamide], the EC50 is more than 2000 nM.

For `Cn1nc(-c2ccccc2)cc1C(=O)NC12CC(NC(=O)COc3ccc(Cl)c(F)c3)(C1)C2` [Compound 340, N-{3-[2-(4-chloro-3-fluorophenoxy)acetamido]bicyclo[1.1.1]pentan-1-yl}-1-methyl-3-phenyl-1H-pyrazole-5-carboxamide], the EC50 is less than 50 nM.

In the case of `O=C(COc1ccc(Cl)c(F)c1)NC12CC(NC(=O)c3cc(C4CC4)on3)(C1)C2` [Compound 256, N-{3-[2-(4-chloro-3-fluorophenoxy)acetamido]bicyclo[1.1.1]pentan-1-yl}-5-cyclopropyl-1,2-oxazole-3-carboxamide], the EC50 was 250 to 1000 nM.

As to `O=C(COc1ccc(Cl)c(F)c1)NC12CCC(NC(=O)c3ccc(OC(F)F)nc3)(C1)C2` [Compound 574, N-{4-[2-(4-chloro-3-fluorophenoxy)acetamido]bicyclo[2.1.1]hexan-1-yl}-6-(difluoromethoxy)pyridine-3-carboxamide], the 50% effective concentration (EC50) lay in the range of 50 to 250 nM.

For `CCCCc1ccc(C(=O)NC23CC(NC(=O)COc4ccc(Cl)c(F)c4)(C2)C3)nc1` [Compound 135, 5-butyl-N-{3-[2-(4-chloro-3-fluorophenoxy)acetamido]bicyclo[1.1.1]pentan-1-yl}pyridine-2-carboxamide], the EC50 lay within 50 to 250 nM.

With `O=C(COc1ccc(Cl)c(F)c1)NC12CC(Nc3c(Cl)cnn(CC(F)(F)F)c3=O)(C1)C2` [Compound 417, 2-(4-chloro-3-fluorophenoxy)-N-(3-{[5-chloro-3-oxo-2-(2,2,2-trifluoroethyl)-2,3-dihydropyridazin-4-yl]amino}bicyclo[1.1.1]pentan-1-yl)acetamide], the EC50 lay in the range of 250 to 1000 nM.

With `Cc1ncc(C(=O)NC23CC(NC(=O)COc4ccc(Cl)c(F)c4)(C2)C3)nc1C` [Compound 196, N-{3-[2-(4-chloro-3-fluorophenoxy)acetamido]bicyclo[1.1.1]pentan-1-yl}-5,6-dimethylpyrazine-2-carboxamide], the EC50 was in the range of 250 to 1000 nM.

For the compound `O=C(COc1ccc(Cl)c(F)c1)NC12CCC(NC(=O)c3ccc(F)cc3)(CC1)CC2O` (centres unmarked) [Compound 231, N-{4-[2-(4-chloro-3-fluorophenoxy)acetamido]-3-hydroxybicyclo[2.2.2]octan-1-yl}-4-fluorobenzamide], the EC50 lay within 50 to 250 nM.

In the case of `Cc1nn(C)cc1-c1ccnc(NC23CC(NC(=O)COc4ccc(Cl)c(F)c4)(C2)C3)n1` [Compound 429, 2-(4-chloro-3-fluorophenoxy)-N-(3-{[4-(1,3-dimethyl-1H-pyrazol-4-yl)pyrimidin-2-yl]amino}bicyclo[1.1.1]pentan-1-yl)acetamide], the concentration giving a half-maximal response (EC50) is more than 2000 nM.

Take `O=C(COc1ccc(C(F)F)c(F)c1)NC12CC(NC(=O)c3cnc(C(F)F)cn3)(C1)C2` [Compound 475, 5-(difluoromethyl)-N-(3-{2-[4-(difluoromethyl)-3-fluorophenoxy]acetamido}bicyclo[1.1.1]pentan-1-yl)pyrazine-2-carboxamide]: the EC50 lay within 50 to 250 nM.

With `O=C(COc1ccc(Cl)c(F)c1)NC12CCC(NC(=O)c3cc(N4CCOCC4)ccn3)(CC1)CC2O` (centres unmarked) [Compound 935, N-{4-[2-(4-chloro-3-fluorophenoxy)acetamido]-3-hydroxybicyclo[2.2.2]octan-1-yl}-4-(morpholin-4-yl)pyridine-2-carboxamide], the EC50 is more than 2000 nM.

Take `CCc1cc(C(=O)NC23CCC(NC(=O)COc4ccc(Cl)c(Cl)c4)(CC2)[C@@H](O)C3)on1` [Compound 694, N-{(3S)-4-[2-(3,4-dichlorophenoxy)acetamido]-3-hydroxybicyclo[2.2.2]octan-1-yl}-3-ethyl-1,2-oxazole-5-carboxamide]: the EC50 is less than 50 nM.

Take `CCc1ocnc1C(=O)NC12CC(NC(=O)COc3ccc(Cl)c(F)c3)(C1)C2` [Compound 859, N-{3-[2-(4-chloro-3-fluorophenoxy)acetamido]bicyclo[1.1.1]pentan-1-yl}-5-ethyl-1,3-oxazole-4-carboxamide]: the half-maximal effective concentration (EC50) was more than 2000 nM.

For `CC(C)c1cc(C(=O)NC23CCC(NC(=O)COc4ccc(Cl)c(F)c4)(CC2)C(O)C3)on1` (centres unmarked) [Compound 577, N-{4-[2-(4-chloro-3-fluorophenoxy)acetamido]-3-hydroxybicyclo[2.2.2]octan-1-yl}-3-(propan-2-yl)-1,2-oxazole-5-carboxamide], the EC50 fell in the range of 50 to 250 nM.
